Data taken from patent US8268846B2, “Amino heterocyclic linked pyrimidine derivatives” (Abbott Laboratories, priority 2008, dated 2012).

What was measured:
histamine H4 receptor [1] = target: T1, histamine H4 receptor (Homo sapiens, UniProt Q9H3N8); test: In vitro histamine H4 potency in FLIPR (Ca2+ flux, HEK-293 cells coexpressing Gαqi5); type: cell-based; details: for Potency: Kb values for antagonists and inverse agonists, block of histamine-induced fluorescence
T1 construct: expressed in transfected cells
Source text: There are many methods available to show the effectiveness of compounds as histamine H4 receptor ligands. Histamine H4 receptors from mammalian species have been cloned. Methods to clone, express, and assess the potency and functional activity of such cloned genes are well known to those skilled in the art of molecular biology. Examples of methods of cloning and expressing histamine H4 receptors, and of assessing the potency and functional activity are described in Nguyen, et al. Molecular Pharmacology (2001) vol. 59 pp. 427-433; Zhu, et al. Molecular Pharmacology (2001) vol. 59 pp. 434-441; Coge, et al., Biochemical and Biophysical Research Communications (2001) vol. 284, pp. 301-309; Liu, et al. Molecular Pharmacology (2001) vol. 59 pp. 420-426; Liu, et al. Journal of Pharmacology and Experimental Therapeutics (2001) v. 299, pp. 121-130; and Thurmond, et al. Journal of Pharmacology and Experimental Therapeutics (2004) v. 309, pp. 404-413. In the present case, to determine the potency and effectiveness of representative compounds of this invention as histamine-H4 receptor ligands (H4 receptor ligands), the following tests were conducted according to previously described methods (see Esbenshade, et al., Biochemical Pharmacology (2004), vol. 68, pp. 933-945, and in Krueger, et al., Journal of Pharmacology and Experimental Therapeutics (2005) v. 314, pp. 271-281): histamine H4 receptors were cloned and stably expressed in HEK-293 (human embryonic kidney) cells coexpressing a Gαqi5. Before testing, cells are loaded with a Ca^+2 sensitive fluorescent dye, in this case Fluo-4 (Invitrogen, Carlsbad, Calif.). In the case of partial agonist or agonist ligands, addition of compound to the cells leads to the increase in intracellular Ca^+2 which is detected by FLIPR (Fluorescence Imaging Plate Reader; Molecular Devices, Sunnyvale, Calif.) technology. In a similar manner, compounds that are antagonists or inverse agonists, block the increase in fluorescence induced by the full histamine H4 agonist histamine, and partial agonists reduce the amount of fluorescence induced by the full histamine H4 agonist histamine. The fluorescence intensities measured before addition of the test compound are subtracted from the fluorescence intensities at later time points. Peak response values determined at each concentration of ligand are expressed as a percentage of the response obtained with the full agonist histamine. Concentration versus response data are analyzed to obtain compound potency as Kb values for antagonists and inverse agonists and as EC50 values for partial agonists.

histamine H4 receptor [2] = target: T1, histamine H4 receptor; test: [3H]-histamine competition binding assay, membranes of HEK-293 cells transfected with histamine H4 receptor; details: displacing 3H-histamine; Ki by Cheng-Prusoff equation; read-out: Potency
Experimental: The potency of compounds of the invention in displacing ^3H-histamine in competition binding assays is assessed by methods described in Esbenshade, et al., Biochemical Pharmacology (2004), vol. 68, pp. 933-945. In this assay, membranes were prepared from HEK-293 cells transiently transfected with the pCINeo expression vector harboring the histamine H4 receptor by homogenization of the cells on ice in TE buffer (50 mM Tris-HCl buffer, pH 7.4, containing 5 mM EDTA), 1 mM benzamidine, 2 μg/mL aprotinin, 1 μg/mL leupeptin, and 1 μg/mL pepstatin. The homogenate was centrifuged at 40,000 g for 20 minutes at 4° C. This step was repeated, and the resulting pellet was resuspended in TE buffer. Aliquots were frozen at −70° C. until needed. On the day of assay, membranes were thawed and diluted with TE buffer. Competition radioligand binding assays were performed with increasing concentrations of test compound in the presence of [^3H]-histamine incubated at 25° C. for 1 hour in a total volume of 0.5 mL of 50 mM Tris, 5 mM EDTA, pH 7.4. All binding reactions were terminated by filtration under vacuum onto polyethylenimine (0.3%) presoaked Unifilters (PerkinElmer Life Sciences) or Whatman GF/B filters (Whatman, Clifton, N.J.) followed by three brief washes with 4 mL of ice-cold TE buffer. Bound radiolabel was determined by liquid scintillation counting. For all of the radioligand competition binding assays, IC50 values and Hill slopes were determined by Hill transformation of the data and Ki values were determined by the Cheng-Prusoff equation. The following table of representative histamine H4 receptor ligands is provided, along with potency values: […]

Structure (SMILES)	Potency (histamine H4 receptor [1])	Ki (histamine H4 receptor [2])	EC50 (histamine H4 receptor [1]; EC50 values for partial agonists)
Nc1nccc(NCCNc2nc(N)nc3c2CCCc2ccccc2-3)n1 [Example 1, N^4-{2-[(2-aminopyrimidin-4-yl)amino]ethyl}-6,7-dihydro-5H-benzo[6,7]cyclohepta[1,2-d]pyrimidine-2,4-diamine]	204 nM	–	–
CN(CCNc1ccnc(N)n1)c1nc(N)nc2c1CCCc1ccccc1-2 [Example 2, N^4-{2-[(2-aminopyrimidin-4-yl)amino]ethyl}-N^4-methyl-6,7-dihydro-5H-benzo[6,7]cyclohepta[1,2-d]pyrimidine-2,4-diamine]	25 nM	3.5 nM	–
Nc1nccc(NCCCNc2nc(N)nc3c2CCCc2ccccc2-3)n1 [Example 3, N^4-{3-[(2-aminopyrimidin-4-yl)amino]propyl}-6,7-dihydro-5H-benzo[6,7]cyclohepta[1,2-d]pyrimidine-2,4-diamine]	309 nM	–	–
Nc1ccnc(NCCNc2nc(N)nc3c2CCCc2ccccc2-3)n1 [Example 4, N^4-{2-[(4-aminopyrimidin-2-yl)amino]ethyl}-6,7-dihydro-5H-benzo[6,7]cyclohepta[1,2-d]pyrimidine-2,4-diamine]	1349 nM	–	–
Nc1nccc(NCCNc2cc(-c3ccccc3)nc(N)n2)n1 [Example 5, N^4-{2-[(2-aminopyrimidin-4-yl)amino]ethyl}-6-phenylpyrimidine-2,4-diamine]	8.7 nM	–	–
Nc1nccc(NCCNc2cc(-c3cccc(Cl)c3)nc(N)n2)n1 [Example 6, N^4-{2-[(2-aminopyrimidin-4-yl)amino]ethyl}-6-(3-chlorophenyl)pyrimidine-2,4-diamine]	2.5 nM	6.6 nM	–
Nc1nccc(NCCNc2cc(-c3cc(Cl)cc(Cl)c3)nc(N)n2)n1 [Example 7, N^4-{2-[(2-aminopyrimidin-4-yl)amino]ethyl}-6-(3,5-dichlorophenyl)pyrimidine-2,4-diamine]	69 nM	–	–
COc1ccc(Cl)cc1-c1cc(NCCNc2ccnc(N)n2)nc(N)n1 [Example 8, N^4-{2-[(2-aminopyrimidin-4-yl)amino]ethyl}-6-(5-chloro-2-methoxyphenyl)pyrimidine-2,4-diamine]	589 nM	–	–

Results, then the compound that gave them:

Potency (histamine H4 receptor [1])	Ki (histamine H4 receptor [2])	EC50 (histamine H4 receptor [1]; EC50 values for partial agonists)	Structure (SMILES)
85 nM	20 nM	–	Nc1nccc(NCCNc2cc(/C=C/c3ccccc3)nc(N)n2)n1 [Example 9, N^4-{2-[(2-aminopyrimidin-4-yl)amino]ethyl}-6-[(E)-2-phenylvinyl]pyrimidine-2,4-diamine]
32 nM	7.4 nM	–	Nc1nccc(NCCNc2nc(N)nc3c2CCCC32CCCC2)n1 [Example 10, N^4′-{2-[(2-aminopyrimidin-4-yl)amino]ethyl}-6′,7′-dihydro-5′H-spiro[cyclopentane-1,8′-quinazoline]-2′,4′-diamine]
–	–	2340 nM	Nc1nccc(NCCNc2nc(N)nc3c2CCCC(c2ccccc2)C3)n1 (stereo not shown) [Example 11, N^4-{2-[(2-aminopyrimidin-4-yl)amino]ethyl}-8-phenyl-6,7,8,9-tetrahydro-5H-cyclohepta[d]pyrimidine-2,4-diamine]
2089 nM	–	–	Nc1nccc(NCCNc2ncnc3c2oc2ccccc23)n1 [Example 12, N^4-[2-([1]benzofuro[3,2-d]pyrimidin-4-ylamino)ethyl]pyrimidine-2,4-diamine]
